# Data published in US9468661B2, “Pyrrolidine derivatives and their use as complement pathway modulators” (priority 2012, dated 2016).
# Biological target: human factor D (Homo sapiens (Human), UniProt P00746)
# Experiment: biochemical
# Assay type: biochemical
# Conditions: Factor D inhibition data using Method 1; recombinant human factor D 10 nM, substrate Z-Lys-thiobenzyl, fluorescence; read-out: IC50
# Description: Human Complement Factor D Assay: Method 1
# Recombinant human factor D (expressed in E. coli and purified using standard methods) at 10 nM concentration is incubated with test compound at various concentrations for 1 hour at room temperature in 0.1 M Hepes buffer, pH 7.5, containing 1 mM MgCl2, 1 M NaCl and 0.05% CHAPS. A synthetic substrate Z-Lys-thiobenzyl and 2,4-dinitrobenzenesulfonyl-fluoresceine are added to final concentrations of 200 μM and 25 μM, respectively. The increase in fluorescence is recorded at excitation of 485 nm and emission at 535 nm in a microplate spectrofluorimeter. IC50 values are calculated from percentage of inhibition of complement factor D-activity as a function of test compound concentration.
# Chain of human factor D (P00746 26-253): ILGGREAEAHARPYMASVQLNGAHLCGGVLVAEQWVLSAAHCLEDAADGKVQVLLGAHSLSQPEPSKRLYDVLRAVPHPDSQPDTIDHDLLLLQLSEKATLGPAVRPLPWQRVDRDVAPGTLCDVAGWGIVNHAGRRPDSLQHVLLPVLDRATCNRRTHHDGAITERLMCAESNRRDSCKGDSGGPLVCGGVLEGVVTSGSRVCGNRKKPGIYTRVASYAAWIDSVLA
row,Structure (SMILES),IC50 [nM]
1,"NC(=O)c1nn(CC(=O)N2[C@@H]3C[C@@H]3C[C@H]2C(=O)NC[C@H]2CC2(Cl)Cl)c2ccncc12 [Example 95, 1-(2-{(1R,3S,5R)-3-[((R)-2,2-Dichlorocyclopropylmethyl)-carbamoyl]-2-aza-bicyclo[3.1.0]hex-2-yl}-2-oxo-ethyl)-1H-pyrazolo[4,3-c]pyridine-3-carboxylic acid amide]",482
2,"CO[C@H]1[C@@H](C(=O)N[C@H](C)[C@H]2CC2(Cl)Cl)N(C(=O)Cn2nc(C(N)=O)c3ccccc32)C[C@@H]1F [Example 59, 1-(2-{(2S,3S,4S)-2-[(R)-1-((R)-2,2-Dichloro-cyclopropyl)-ethylcarbamoyl]-4-fluoro-3-methoxy-pyrrolidin-1-yl}-2-oxo-ethyl)-1H-indazole-3-carboxylic acid amide]",14
3,"CC1(C)[C@H](CNC(=O)[C@@H]2C[C@H]3C[C@H]3N2C(=O)Cn2nc(C(N)=O)c3ccncc32)C1(Cl)Cl [Example 102, 1-(2-{(1R,3S,5R)-3-[((R)-2,2-Dichloro-3,3-dimethyl-cyclopropylmethyl)-carbamoyl]-2-aza-bicyclo[3.1.0]hex-2-yl}-2-oxo-ethyl)-1H-pyrazolo[3,4-c]pyridine-3-carboxylic acid amide]",118
4,"CC1CCCC(CNC(=O)[C@@H]2C[C@H]3C[C@H]3N2C(=O)Cn2nc(C(N)=O)c3ccncc32)C1 (single isomer, unassigned; dia 2) [Example 116]",445
5,"CC(=O)c1nn(CC(=O)N2[C@@H]3C[C@@H]3C[C@H]2C(=O)NC[C@H]2CC2(Cl)Cl)c2cnccc12 [Example 92, (1R,3S,5R)-2-[2-(3-Acetyl-pyrazolo[3,4-c]pyridin-1-yl)-acetyl]-2-aza-bicyclo[3.1.0] hexane-3-carboxylic acid ((R)-2,2-dichloro-cyclopropylmethyl)-amide]",24
6,"CC(=O)c1nn(CC(=O)N2[C@@H]3C[C@@H]3C[C@H]2C(=O)NC[C@@H]2CC2(Cl)Cl)c2ncccc12 [Example 68, (1R,3S,5R)-2-[2-(3-Acetyl-pyrazolo[3,4-b]pyridin-1-yl)-acetyl]-2-aza-bicyclo[3.1.0] hexane-3-carboxylic acid ((S)-2,2-dichloro-cyclopropylmethyl)-amide]",177
7,"CC(=O)c1nn(CC(=O)N2[C@@H]3C[C@@H]3C[C@H]2C(=O)NCC2C(C)(C)C2(C)C)c2ncccc12 [Example 2, (1R,3S,5R)-2-[2-(3-Acetyl-pyrazolo[3,4-b]pyridin-1-yl)-acetyl]-2-aza-bicyclo[3.1.0] hexane-3-carboxylic acid (2,2,3,3-tetramethyl-cyclopropylmethyl)-amide]",1850
8,"CC(=O)c1nn(CC(=O)N2[C@@H]3C[C@@H]3C[C@H]2C(=O)NCC2CCCCC2(C)C)c2cnccc12 (single isomer, unassigned; dia 1) [Example 21]",118
9,"C[C@@H](NC(=O)[C@@H]1C[C@H]2C[C@H]2N1C(=O)Cn1nc(C(N)=O)c2ccccc21)C1CCCCC1 [Example 54, 1-{2-[(1R,3S,5R)-3-((R)-1-Cyclohexyl-ethylcarbamoyl)-2-aza-bicyclo[3.1.0]hex-2-yl]-2-oxo-ethyl}-1H-indazole-3-carboxylic acid amide]",64
10,"CC(=O)c1nn(CC(=O)N2[C@@H]3C[C@@H]3C[C@H]2C(=O)NCC2CCCCC2(C)C)c2cnccc12 (single isomer, unassigned; dia 2) [Example 22]",1190
11,"CC(=O)c1nn(CC(=O)N2[C@@H]3C[C@@H]3C[C@H]2C(=O)NC[C@H]2CC2(Cl)Cl)c2ccc(CCc3ncccn3)cc12 [Example 43, (1R,3S,5R)-2-{2-[3-Acetyl-5-(2-pyrimidin-2-yl-ethyl)-indazol-1-yl]-acetyl}-2-aza-bicyclo[3.1.0] hexane-3-carboxylic acid ((R)-2,2-dichloro-cyclopropylmethyl)-amide]",71
12,"CC(=O)c1nn(CC(=O)N2[C@@H]3C[C@@H]3C[C@H]2C(=O)N[C@H](CO)C2CCCCC2)c2cnccc12 [Example 9, (1R,3S,5R)-2-[2-(3-Acetyl-pyrazolo[3,4-c]pyridin-1-yl)-acetyl]-2-aza-bicyclo[3.1.0] hexane-3-carboxylic acid ((S)-1-cyclohexyl-2-hydroxy-ethyl)-amide]",469
13,"CCc1cc2c(C(N)=O)nn(CC(=O)N3[C@@H]4C[C@@H]4C[C@H]3C(=O)N[C@H](C)[C@H]3CC3(Cl)Cl)c2cn1 [Example 39, 1-(2-{(1R,3S,5R)-3-[(R)-1-((R)-2,2-Dichloro-cyclopropyl)-ethylcarbamoyl]-2-aza-bicyclo[3.1.0]hex-2-yl}-2-oxo-ethyl)-5-ethyl-1H-pyrazolo[3,4-c] pyridine-3-carboxylic acid amide]",27
14,"[2H]C([2H])([2H])[C@@H](NC(=O)[C@@H]1C[C@H]2C[C@H]2N1C(=O)Nc1cn(C(N)=O)c2ccccc12)[C@H]1CC1(Cl)Cl [Example 30, (1R,3S,5R)-2-Aza-bicyclo [3.1.0]hexane-2,3-dicarboxylic acid 2-[(1-carbamoyl-1H-indol-3-yl)-amide] 3-{[(R)-1-((R)-2,2-dichloro-cyclopropyl)-ethyl-2,2,2-D3]-amide}]",15
15,"CC(=O)c1nn(CC(=O)N2[C@@H]3C[C@@H]3C[C@H]2C(=O)N[C@H](C)[C@H]2CC2(Cl)Cl)c2ccc(OCc3cc(C)[nH]n3)cc12 [Example 64, (1R,3S,5R)-2-{2-[3-Acetyl-5-(5-methyl-1H-pyrazol-3-ylmethoxy)-indazol-1-yl]-acetyl}-2-aza-bicyclo[3.1.0]hexane-3-carboxylic acid [(R)-1-((R)-2,2-dichloro-cyclopropyl)-ethyl]-amide]",3
16,"NC(=O)c1nn(CC(=O)N2[C@@H]3C[C@@H]3C[C@H]2C(=O)NCC2CC2(F)F)c2ccccc12 (stereo partly drawn) [Example 67, 1-(2-{(1R,3S,5R)-3-[(2,2-Difluoro-cyclopropylmethyl)-carbamoyl]-2-aza-bicyclo[3.1.0]hex-2-yl}-2-oxo-ethyl)-1H-indazole-3-carboxylic acid amide]",428
17,"CC1(C)[C@H](CNC(=O)[C@@H]2C[C@H]3C[C@H]3N2C(=O)Cn2nc(C(N)=O)c3ccccc32)C1(Cl)Cl [Example 107, 1-(2-{(1R,3S,5R)-3-[((R)-2,2-Dichloro-3,3-dimethyl-cyclopropylmethyl)-carbamoyl]-2-aza-bicyclo[3.1.0]hex-2-yl}-2-oxo-ethyl)-1H-indazole-3-carboxylic acid amide]",52
18,"CC1CCCC1CNC(=O)[C@@H]1C[C@H]2C[C@H]2N1C(=O)Cn1nc(C(N)=O)c2ccncc21 (single isomer, unassigned; dia 4) [Example 88]",781
19,"C[C@@H](NC(=O)[C@@H]1C[C@H]2C[C@H]2N1C(=O)Cn1nc(C(N)=O)c2ccc(Cl)cc21)[C@H]1CC1(Cl)Cl [Example 49, 6-Chloro-1-(2-{(1R,3S,5R)-3-[(R)-1-((R)-2,2-dichloro-cyclopropyl)-ethylcarbamoyl]-2-aza-bicyclo[3.1.0]hex-2-yl}-2-oxo-ethyl)-1H-indazole-3-carboxylic acid amide]",4
20,"CC(=O)c1nn(CC(=O)N2[C@@H]3C[C@@H]3C[C@H]2C(=O)NCC2CC2(C)C)c2ncccc12 (stereo partly drawn) [Example 12, (1R,3S,5R)-2-[2-(3-Acetyl-pyrazolo[3,4-b]pyridin-1-yl)-acetyl]-2-aza-bicyclo[3.1.0] hexane-3-carboxylic acid (2,2-dimethyl-cyclopropylmethyl)-amide]",1410
21,"CC(=O)c1nn(CC(=O)N2[C@@H]3C[C@@H]3C[C@H]2C(=O)NCC2CCCC(C)(C)C2)c2cnccc12 (single isomer, unassigned; dia 1) [Example 17]",661

# Same assay, conditions: IC50, Factor D inhibition data using Method 1; recombinant human factor D 10 nM, substrate Z-Lys-thiobenzyl, fluorescence
row,Structure (SMILES),IC50 [nM]
1,"[2H]C([2H])([2H])[C@@H](NC(=O)[C@@H]1C[C@H]2C[C@H]2N1C(=O)Cn1nc(C(N)=O)c2ccccc21)[C@H]1CC1(Cl)Cl [Example 121, 1-(2-{(1R,3S,5R)-3-[(R)-1-((R)-2,2-Dichloro-cyclopropyl)-ethyl-2,2,2-D3-carbamoyl]-2-aza-bicyclo[3.1.0]hex-2-yl}-2-oxo-ethyl)-1H-indazole-3-carboxylic acid amide]",14
2,"CC(=O)c1nn(CC(=O)N2[C@@H]3C[C@@H]3C[C@H]2C(=O)NCC2C(C)C2(Cl)Cl)c2ccc(OCc3ncccn3)cc12 (single isomer, unassigned; dia 1) [Example 75, (1R,3S,5R)-2-{2-[3-Acetyl-5-(pyrimidin-2-ylmethoxy)-indazol-1-yl]-acetyl}-2-aza-bicyclo[3.1.0] hexane-3-carboxylic acid ((1R,3R) or (1S,3S)-2,2-dichloro-3-methyl-cyclopropylmethyl)-amide-Dia 1]",7
3,"CC1C(CNC(=O)[C@@H]2C[C@H]3C[C@H]3N2C(=O)Cn2nc(C(N)=O)c3ccncc32)C1(Cl)Cl (single isomer, unassigned; dia 1) [Example 81, 1-(2-{(1R,3S,5R)-3-[((1R,3R) or (1S,3R)-2,2-Dichloro-3-methyl-cyclopropylmethyl)-carbamoyl]-2-aza-bicyclo[3.1.0]hex-2-yI}-2-oxo-ethyl)-1H-pyrazolo[3,4-c]pyridine-3-carboxylic acid amide-Dia 1]",21
4,"NC(=O)c1nn(CC(=O)N2[C@@H]3C[C@@H]3C[C@H]2C(=O)NC(CO)C2CC2(Cl)Cl)c2ccccc12 (single isomer, unassigned; dia 3) [Example 50]",7300
5,"CC1C(CNC(=O)[C@@H]2C[C@H]3C[C@H]3N2C(=O)Cn2nc(C(N)=O)c3ccccc32)C1(Cl)Cl (single isomer, unassigned; dia 2) [Example 78, 1-(2-{(1R,3S,5R)-3-[((1R,3S) or (1S,3R)-2,2-Dichloro-3-methyl-cyclopropylmethyl)-carbamoyl]-2-aza-bicyclo[3.1.0]hex-2-yl}-2-oxo-ethyl)-1H-indazole-3-carboxylic acid amide-Dia 2]",62
